Several values for one entry are separate records, joined by “and”; a condition that tells them apart may be missing. Identical values can stand only once. Like-named read-outs stand apart in the source and are kept apart here. Each block holds one compound with its values, some of them ahead of it.
Key:
[1] = tested on: whole animal tumor models; conditions: a number of whole animal tumor models; cited from earlier work
HL60 = assay: In vitro antiproliferative MTT assay in HL60, 24 h endpoint; type: cell-based, human; conditions: triplicate determination; for IC50: read-out: IC50 (μM) ± S.D. in HL60
Procedure: In vitro proliferation assay. Approximately 3 000-5 000 (15 000 cells for HL-60) exponentially growing cells were seeded in each well of a 96-well plate with 50 μl of medium and were allowed to adhere overnight. Cells were then treated with each compound at concentrations ranging from 0.01-10 μM giving the final volume of 100 μl in each well. At the end of incubation period, 15 μl of MTT solution (5.0 mg/ml in PBS) was added and incubated for an additional 4 h. Medium and excessive MTT were aspirated and formazan formed was solubilized with 100 μl of DMSO. Absorbance, as a measurement of viable cell number was read at 570 nm with ThermoLabsystems OpsysMR microplate spectrometer. At least three independent experiments were performed and results are presented as an average.

OKF6 = assay: In vitro anti-proliferative MTT assay, 48 h, OKF6 immortalized normal oral keratinocytes; type: cell-based; conditions: immortalized normal human epithelial cells, read-out: IC50 (μM) ± S.D., OKF6
From the text: (§1) In vitro proliferation assay.

MCF-7 = assay: In vitro anti-proliferative MTT assay, 48 h, MCF-7; type: cell-based, human; conditions: MCF-7, breast, 48 h post-treatment, read-out: IC50 (μM) ± S.D., MCF-7
From the text: as §1

[2] = tested on: non-tumorigenic epithelial cell types; conditions: in vitro, similar concentrations; cited from earlier work
HK1 = assay: In vitro anti-proliferative MTT assay, 48 h, HK1; type: cell-based, human; conditions: HK1, nasopharyngeal, 48 h post-treatment, read-out: IC50 (μM) ± S.D., HK1
From the text: as §1

carcinoma cell types = conditions: in vitro; cited from earlier work
NP69 = assay: In vitro anti-proliferative MTT assay, 48 h, NP69 immortalized normal nasopharyngeal epithelial cells; type: cell-based; conditions: immortalized normal human epithelial cells, read-out: IC50 (μM) ± S.D., NP69
From the text: as §1

HSC2 = assay: In vitro anti-proliferative MTT assay, 48 h, HSC2; type: cell-based, human; conditions: HSC2, oral, 48 h post-treatment, read-out: IC50 (μM) ± S.D., HSC2
From the text: as §1

HCT116 = assay: In vitro anti-proliferative MTT assay, 48 h, HCT116; type: cell-based, human; conditions: HCT116, colon, 48 h post-treatment, read-out: IC50 (μM) ± S.D., HCT116
From the text: as §1

[3] = Fluorescence quantum yield; type: physicochemical; conditions: for fluorescence quantum yield: in ethanol, unpublished data
Procedure: Steady-state fluorescence spectroscopic studies were performed on a Cary Eclipse fluorometer. The slit width was 5 nm for both excitation and emission. The relative quantum yields of the samples were obtained by comparing the area under the corrected emission spectrum of the test sample with that of a standard. The quantum efficiencies of fluorescence were obtained from multiple measurements (N=3) with the following equation:
Φx=Φst(Ix/Ist)(Ast/Ax)(ηx^2/ηst^2)
Where Φst is the reported quantum yield of the standard, I is the area under the emission spectra, A is the absorption at the excitation wavelength and η is the refractive index of the solvent used, measured on a pocket refractometer from ATAGO. X subscript denotes test sample, and st denotes standard.

HSC2 cells [4] = conditions: IC50 concentration (0.25 μM), 4 h to 48 h
Procedure: Cell cycle analysis. HSC2 cells were treated and collected as above. Cells were then fixed in 70% ice-cold ethanol (v/v in PBS) overnight at 4° C. Following fixation, the cells were washed twice in cold PBS. The pellet was then resuspended in PBS solution containing 20 μg/ml RNase A and 1 μM SYTOX Green for 30 min. The cells were analysed on a FACSCalibur flow cytometer with 488 nm argon laser. The DNA-SYTOX Green fluorescence of 10 000 cells were collected with the FL1 detector with 530/30 band pass filter.

HSC2 cells [5] = conditions: 0.5 μM
Procedure: AnnexinV-FITC apoptosis analysis. HSC2 cells grown in 60-mm dishes at 50% confluency were treated with 0.5 μM of compound 11. At various treatment intervals, floating cells in the medium were pooled together with the adherent cells after trypsinization and were washed twice with cold PBS. The cells were resuspended with 1× binding buffer at 1×10^6 cells/ml. A 100 μl of cell suspension was transferred to a 5 ml tube followed by […] of AnnexinV-FITC and […] of propidium iodide (200 μg/ml in PBS). The cells were gently mixed and incubated for 15 min at RT in the dark before analysed on a FACSCalibur flow cytometer with 488 nm argon laser. The fluorescence data of 10 000 cells were collected with the FL1 detector with 530/30 band pass filter to collect Annexin-FITC fluorescence, and the FL3 detector with a 630 nm long pass filter to collect propidium iodide fluorescence.

HSC2 cells [6] = conditions: 100 nM
Procedure: Cellular localization. HSC2 cells grown on round glass coverslips in 12-well plate were co-incubated with 100 nM of compound 11 together with organelle-specific fluorescence probes. The endoplasmic reticulum was labeled with 100 nM of ER-Tracker Blue-White DPX, the lysosomes were stained with 500 nM of LysoTracker Blue DND-22, and the mitochrondria was tracked with 100 nM of Rh123 respectively for 15-30 min of incubation at room temperature. After incubation, cells were gently rinsed in PBS to remove free dyes, and the stained cells were observed using Olympus DSU spinning disk confocal microscope configured with a PlanApo x63 oil objective and iXon EM+(Andor Technology) digital camera. Fluorescent images of X-Y sections at 0.2 μm were collected sequentially using Olympus Cell^R software. Organelle-specific fluorescence probes were respectively excited at 365 nm to illuminate ER-tracker and LysoTracker, at 494 nm for Rh123 and at 575 nm for compound 11.

carcinoma = conditions: cited from earlier work
cancer cells = conditions: cited from earlier work
[7] = tested on: A6-derived subcutaneous tumors; conditions: nude mice, intraperitoneal injection; cited from earlier work
[8] = tested on: transformed mouse mammary epithelial cells; conditions: cells with increased mitochondrial transmembrane potential; cited from earlier work
[9] = Homo sapiens, HL-60, HL60, 24 h post-treatment

Compound: 3-ethyl-3′-methyl-thiatelluracarbocyanine iodide
activity in whole animal tumor models [1]: anti-carcinoma activity

Compound: Cc1ccccc1-c1c2ccc(=[N+]3CCOCC3)cc-2oc2cc(N3CCCCC3)ccc12.[Cl-] [Compound 3]
IC50 (μM) ± S.D. in HL60 (HL60; HL60, 24 h post-treatment): lowest IC50 value among compounds 1-6
IC50 (HL60; HL60, 24 h post-treatment): 0.35 ± 0.01 µM

Compound: Cc1ccccc1-c1c2ccc(=[N+]3CCCCC3)cc-2oc2cc(N3CCCCC3)ccc12 [Compound 2]
IC50 (HL60; HL60, 24 h post-treatment): 0.76 ± 0.03 µM

Compound: COC(=O)c1ccccc1-c1c2ccc(=N)cc-2oc2cc(N)ccc12.Cl [Rh123, rhodamine 123, reference compound]
IC50 (OKF6): 9.84 ± 3.46 µM
IC50 (MCF-7): 5.61 ± 0.61 µM
non-tumorigenic epithelial cell types that remained unaffected [2]: 6/6
IC50 (HK1): 5.86 ± 0.15 µM
carcinoma cell types in which cell death was markedly induced (carcinoma cell types): 9/9
IC50 (NP69): 6.28 ± 0.21 µM
IC50 (HSC2): 4.48 ± 2.23 µM
IC50 (HCT116): 7.92 ± 0.95 µM

Compound: Cc1ccccc1-c1c2ccc(=[N+]3CCN(C(=O)OC(C)(C)C)CC3)cc-2oc2cc(N3CCN(C(=O)OC(C)(C)C)CC3)ccc12 [Compound 5]
IC50 (HL60; HL60, 24 h post-treatment): 0.62 ± 0.07 µM

Compound: COc1ccc(-c2c3ccc(=[N+]4CCCCC4)cc-3oc3cc(N4CCCCC4)ccc23)cc1 [Compound 12]
IC50 (HL60; HL60, 24 h post-treatment): 0.66 ± 0.17 µM

Compound: Cc1cc(N)c2ccccc2[n+]1CCCCCCCCCC[n+]1c(C)cc(N)c2ccccc21 [dequalinium chloride]
activity in whole animal tumor models [1]: anti-carcinoma activity

IC50 (μM) ± S.D. in HL60 (HL60; HL60, 24 h post-treatment): moderate to poor activity
IC50 (HL60; [9]): 2.91 ± 1.86 µM
Compound: Oc1cccc(O)c1-c1c2ccc(=[N+]3CCCCC3)cc-2oc2cc(N3CCCCC3)ccc12 [Compound 15]

Compound: [Cl-].c1csc(-c2c3ccc(=[N+]4CCCCC4)cc-3oc3cc(N4CCCCC4)ccc23)c1 [Compound 10]
fluorescence quantum yield [3]: 0.10 ± 0.01
IC50 (OKF6): 0.25 ± 0.1 µM
IC50 (MCF-7): 0.27 ± 0.16 µM
IC50 (HK1): 0.09 ± 0.01 µM
IC50 (NP69): 0.33 ± 0.2 µM
IC50 (HL60; HL60, 24 h post-treatment): 0.1 µM
IC50 (HSC2): 0.12 ± 0.09 µM
IC50 (HCT116): 0.15 ± 0.06 µM

Compound: Ic1ccc(-c2c3ccc(=[N+]4CCCCC4)cc-3oc3cc(N4CCCCC4)ccc23)cc1.[Cl-] [Compound 11]
fluorescence quantum yield [3]: 0.28 ± 0.01
IC50 (OKF6): 0.41 ± 0.07 µM
IC50 (MCF-7): 0.39 ± 0.22 µM
IC50 (HK1): 0.42 ± 0.06 µM
cell cycle profile (HSC2 cells [4]): remained unchanged
IC50 (NP69): 0.51 ± 0.16 µM
cells staining positive for annexin V (HSC2 cells [5]; 0 h or 4 h time-points): less than 10%
cells staining positive for annexin V (HSC2 cells [5]; 8 h of compound incubation): 16%
proportion of cells undergoing apoptosis (HSC2 cells [5]; within 24 h): 58%
IC50 (HL60; HL60, 24 h post-treatment): 0.09 µM
IC50 (HSC2): 0.25 ± 0.12 µM
IC50 (HCT116): 0.39 ± 0.11 µM
presence of compound in the nucleus (HSC2 cells [6]): remained free of compound 11
staining of the cytoplasmic or nuclear membrane (HSC2 cells [6]): not detected
co-localisation with ER and lysosomes (HSC2 cells [6]; ER-Tracker and LysoTracker): only partial co-localisation

Compound: CCn1c(=O)/c(=C2\Sc3ccccc3N2C)s/c1=C\c1cccc[n+]1CC.[Cl-] [MKT-077]
accumulation in tumor cell mitochondria (carcinoma; clinical study): preferentially accumulated in tumor cell mitochondria
clinical efficacy (carcinoma; phase II, approved dosage and drug regimen): lack of efficacy
growth of cancer cells in vitro and in vivo (cancer cells): significantly inhibit growth

Compound: Cc1c2ccc(=[N+]3CCCCC3)cc-2oc2cc(N3CCCCC3)ccc12.[Cl-] [Compound 7]
IC50 (μM) ± S.D. in HL60 (HL60; HL60, 24 h post-treatment): moderate to poor activity
IC50 (HL60; HL60, 24 h post-treatment): 3.86 ± 1.46 µM

Compound: Cc1ccccc1-c1c2ccc(=[N+]3CCNCC3)cc-2oc2cc(N3CCNCC3)ccc12.[Cl-] [Compound 6]
IC50 (μM) ± S.D. in HL60 (HL60; HL60, 24 h post-treatment): moderate to poor activity
IC50 (HL60; HL60, 24 h post-treatment): 36.7 µM and 53.3 µM

Compound: COc1cccc(OC)c1-c1c2ccc(=[N+]3CCCCC3)cc-2oc2cc(N3CCCCC3)ccc12 [Compound 14]
IC50 (HL60; HL60, 24 h post-treatment): 0.25 ± 0.22 µM

Compound: COc1ccccc1-c1c2ccc(=[N+]3CCCCC3)cc-2oc2cc(N3CCCCC3)ccc12 [Compound 13]
IC50 (HL60; HL60, 24 h post-treatment): 0.95 ± 0.01 µM

Compound: Cc1ccccc1-c1c2ccc(=[N+]3CCOCC3)cc-2oc2cc(N3CCOCC3)ccc12.[Cl-] [Compound 4]
IC50 (μM) ± S.D. in HL60 (HL60; HL60, 24 h post-treatment): moderate to poor activity
IC50 (HL60; HL60, 24 h post-treatment): 8.27 µM

Compound: Cc1ccccc1-c1c2ccc(=[N+]3CCCC3)cc-2oc2cc(N3CCCC3)ccc12 [Compound 1]
IC50 (HL60; HL60, 24 h post-treatment): 0.72 ± 0.09 µM

Compound: c1ccc(Cc2c3ccc(=[N+]4CCCCC4)cc-3oc3cc(N4CCCCC4)ccc23)cc1 [Compound 8]
IC50 (HL60; HL60, 24 h post-treatment): 0.82 ± 0.04 µM

quantum yield ([3]; in phosphate buffer): 0.13
IC50 (μM) ± S.D. in HL60 (HL60; HL60, 24 h post-treatment): moderate to poor activity
IC50 (HL60; [9]): > 100 µM
Compound: O=C(O)COc1cccc(OCC(=O)O)c1-c1c2ccc(=[N+]3CCCCC3)cc-2oc2cc(N3CCCCC3)ccc12 [Compound 16]

Compound: C[n+]1ccc(/C=C/c2c[nH]c3ccccc23)cc1.[I-] [Compound F16]
growth of A6-derived subcutaneous tumors [7]: retard the growth
proliferation of transformed mouse mammary epithelial cells [8]: selectively inhibited proliferation

— patent publication US20110212955A1, “ROSAMINE DERIVATIVES AS AGENTS FOR THE TREATMENT OF CANCER” (CANCER RESEARCH INITIATIVES FOUNDATION, priority 2008, published 2011)
